According to US11324787B2, “Analytical methods and arrays for use in the same” (SENZAGEN AB, priority 2017, dated 2022):
Values joined by “and” are separate entries in the source; they are usually repeats but may differ in a detail not shown here. Equal values may be shown once. Read-outs that look alike come from different tables or passages of the source.

Experiments:
[1] = test system: myeloid cell line derived from MUTZ-3; assay: Cytotoxicity / viability by flow cytometry (propidium iodide), 24 hours exposure; conditions: yes/no; MUTZ-3 derived cells
[2] = cited from earlier work; for binary class: sens / non-sens; for true CLP: test set
[3] = cited from earlier work; for binary class (HP*): based on human potency [41] where available, otherwise according to CLP; for HP: human potency, chemicals of random forest training and test set
[4] = test system: myeloid cell line derived from MUTZ-3; assay: GARD binary classification (SVM on GARD prediction signature, 200 transcripts); conditions: for GARD binary prediction: SVM, median calibrated decision value of replicates >0 = sensitizer
[5] = test system: myeloid cell line derived from MUTZ-3; assay: GARD random forest model predicting CLP categories (52 transcripts, Example A); conditions: test set; for GARD predicted CLP: majority voting across replicates; for predicted CLP: separate replicates
[6] = CLP annotation of 37 novel chemicals
[7] = Table 9, chemicals training set
[8] = chemicals of random forest training and test set

| SMILES | cytotox [1] | CLP [2, 6] | CLP [2, 7] | CLP [2, 8] | binary class [2, 8] | binary class (HP*) [3] | HP [3] | GARD binary prediction [4] | GARD predicted CLP [5] | predicted CLP [5] | CLP ([2]; Table 10, chemicals test set 1) [B] | true CLP ([2]; per replicate line) [B] | true CLP [2] [B] | Human potency [41] ([3]; test set) | GARD binary classification relative to cut-off defined by benchmark samples ([4]; misclassified sensitizing chemicals) |
| --- | --- | --- | --- | --- | --- | --- | --- | --- | --- | --- | --- | --- | --- | --- | --- |
| CN(C)CCCN1c2ccccc2Sc2ccc(Cl)cc21 [chlorpromazine] | yes | 1A | 1A | 1A | sens | S (HP 1-4 = S) | 3 | S |  |  |  |  |  |  |  |
| C=CC(C)(O)CCC=C(C)C (centres unmarked) [linalool] | no | 1B |  | 1B | sens | S (HP 1-4 = S) | 4 |  | 1B | no cat and 1B (2×) | 1 | 1 | 1 | 4 |  |
| CC(C)=CCCC(C)=CC=O [citral] | yes | 1B | 1B | 1B | sens | S (HP 1-4 = S) | 3 | S |  |  |  |  |  |  |  |
| O=C1C=CC(=O)C=C1 [p-benzochinone, p-benzoquinone] | yes |  |  |  |  |  |  |  | 1A | 1A |  |  |  |  |  |
| CCCCCCCCCCCCCC(=O)OC(C)C [isopropyl myristate] | no | 1B | 1B | 1B | sens | NS (5-6 = NS) | 5 |  |  |  |  |  |  |  |  |
| OCCNCCO [diethanolamine] | no | 1B | 1B | 1B | sens | NS (5-6 = NS) | 5 |  |  |  |  |  |  |  |  |
| CCCCCC#CC(=O)OC [methyl heptine carbonate] | yes | 1A | 1A | 1A | sens | S (HP 1-4 = S) | 2 | S |  |  |  |  |  |  |  |
| CCCCCCOC(=O)c1ccccc1O [hexyl salicylate] | yes | 1A | 1A | 1A | sens | S (HP 1-4 = S) | 4 | S |  |  |  |  |  |  |  |
| Oc1c(Cl)c(Cl)c(Cl)c(Cl)c1Cl [pentachlorophenol] | no | 1B | 1B | 1B | sens | NS (5-6 = NS) | 5 |  |  |  |  |  |  |  |  |
| CC(C)C1=CC2=CC[C@@H]3[C@](C)(CCC[C@@]3(C)C(=O)O)[C@H]2CC1 [abietic acid] | no | 1B | 1B | 1B | sens | S (HP 1-4 = S) | 3 | S |  |  |  |  |  |  |  |
| CC(C)=CCCC(C)CCO (centres unmarked) [citronellol] | no | 1B | 1B | 1B | sens | NS (5-6 = NS) | 5 | S |  |  |  |  |  |  |  |
| CCOC(=O)c1ccc(N)cc1 [benzocaine] | no | 1B |  | 1B | sens | S (HP 1-4 = S) | 4 |  |  |  |  |  |  |  | close to the cut-off |
| Cc1cccc(O)c1O [3-methylcatechol, 3-Methylcatechol] | yes | 1A | 1A | 1A | sens | S (HP 1-4 = S) |  | S |  |  |  |  |  |  |  |
